Data on 1 molecule can be found in patent US20220280644A1, “"TRPswitch" - A STEP FUNCTION CHEMO-OPTOGENETIC LIGAND” (UNIVERSITY OF UTAH RESEARCH FOUNDATION, priority 2019, published 2022).

For test [1], the system named is wild-type zebrafish larvae. Put plainly: Behavioral assay: light-induced motion response of wild-type larvae. It counts as in vivo, Zebrafish (Danio rerio). On the procedure: A total of 1,000 compounds were selected from the ChemBridge Corp. catalog. Compounds were dissolved in DMSO at a stock concentration of 1 μg/μL (˜1.5 mM). The library was screened at a 1:100 dilution in E3 solution for a final concentration of ˜15 μM. Negative controls were treated with an equal volume of DMSO. Groups of 3 larvae at 3 days post fertilization (dpf) were distributed into the wells of 96-well clear bottom black microplates (07-200-567; Fisher Scientific) in 150 μL E3 before the addition of small molecules. Stock solutions of compounds were added directly to zebrafish in the wells of a 96 well plate (Corning 3631), mixed, and allowed to incubate for 1 h in the dark at 28.5° C. prior to behavioral evaluation in the behavioral assay. Ordering information: 1 (5533696; ChemBridge); 3 (5538408; ChemBridge).
Larvae in each of the wells were exposed to four 1 second flashes of light stimulus in the following order: 450-500 nm (WL1), 415-455 nm (WL2), 352-402 nm (WL3), white light (WL4), with a 5 second inter-stimulus interval. Digital video recording was performed for 5 seconds before the first light stimuli and continued throughout the stimulation sequence. Band pass filters (Semrock FF02-475/50, FF02-435/40, FF01-377/50) were used to restrict the excitation light to the indicated wavelengths. […] 290 frames of digital video were recorded per well at 10 FPS using an EMCCD camera (C9100; Hamamatsu) mounted on an inverted compound microscope (AxioObserver A1; Zeiss) with a NA 0.03 1.25× objective and a barrier with a 0.7 mm diameter opening to restrict light scattering to the sample. MetaMorph software (Molecular Devices) was used to control the execution of TTL signals and camera capture using the built-in stream acquisition with trigger function. Each video was saved for review. Light stimuli were generated with an ozone free 300-Watt xenon bulb housed in a Lambda LS illuminator (Sutter Instruments). A dichroic mirror (T510LPXRXT; Chroma) was used for appropriate excitation of samples and bright field acquisition. Schott longpass absorption glass (RG610; Chroma) was added in the transmitted light path to reduce unwanted excitation to the well and to provide sufficient light for video recording. All behavioral experiments were conducted at room temperature. […]
To analyze digital video recordings, custom MetaMorph software scripts were used to automatically threshold the video to identify the area of larvae in each frame. Threshold images of the frames after each light activation event were overlaid to calculate a new combined threshold area. The motion index was calculated as the percentage change between the threshold area in the frame right before light activation and the new combined threshold area. This motion index correlates with the overall amount of motion in the well.

The test system of test [2] is zebrafish Trpa1b (zTrpa1b). Put plainly: Rescue experiment, Trpa1b−/− embryos re-expressing zTrpa1b in Rohon-beard neurons. It counts as in vivo. As to conditions: 20 μM, motion within 5 s after 1 s WL3. As for the experimental part: (§1) For Trpa1b ohnolog and paralog rescue experiments, Trpa1b^−/− embryos were injected with ngn1:zTrpa1b-2A-mCherry (partial plasmid sequence in SEQ ID NO:5), ngn1:zTrpa1a-2A-mCherry, ngn1:hTRPA1-2A-EGFP or ngn1:mTRPA1-2A-mCherry at the 1-cell stage for mosaic Rohon-beard neuron expression. Embryos were screened at 2 dpf for fluorescent expression in Rohon-beard neurons, incubated with 20 μM TRPswitch-B for 1 hr and decapitated posterior to the eyes right before experiments. NA 0.25 5× objective and 1 s WL3 light illumination was used.
(§2) To test the potential cross activity of TRPswitch-B on the zebrafish ohnolog Trpa1a and on mammalian orthologs, zebrafish Trpa1a, mouse TRPA1 or human TRPA1 were transiently re-expressed in the Rohon-beard neurons of mutant Trpa1b^−/− zebrafish and performed light-induced motion response experiments in the presence of TRPswitch-B. Rescue experiments were performed in Trpa1b^−/− zebrafish with transient mosaic re-expression of zebrafish Trpa1b (zTrpa1b), zebrafish Trpa1a (zTrpa1a), mouse TRPA1 (mTRPA1) or human TRPA1 (hTRAP1) in Rohon-beard neurons. Embryos were pre-treated with 20 μM TRPswitch-B and decapitated right before light stimulation to eliminate the light response mediated by the retina (Table 5). […]

Test [3] relates to zebrafish Trpa1a (zTrpa1a). Put plainly: Rescue experiment, Trpa1b−/− embryos expressing zTrpa1a in Rohon-beard neurons. It is filed as in vivo. As to conditions: 20 μM, motion within 5 s after 1 s WL3. On the procedure:
as §1, §2

The next test relates to WT embryos. Put plainly: Rescue experiment, WT embryos. It counts as in vivo, zebrafish. As to conditions: 20 μM, motion within 5 s after 1 s WL3. On the procedure: as §1, §2

Consider `Cc1nn(C)c(C)c1/N=N/c1ccc(NC(=O)c2cccs2)cc1NC(=O)c1cccs1` [Compound 9, (E)-N,N′-(4-((1,3,5-trimethyl-1H-pyrazol-4-yl)diazenyl)-1,3-phenylene)bis(thiophene-2-carboxamide)], for which the “light-induced motion response (in vivo activity)” value in test [1] (3 dpf wild-type larvae, 1 s flashes WL1-WL4) is listed as “comparable biological response to TRPswitch-A”. The “effect of DABCO on light-induced motion response” value in test [1] (DABCO, singlet oxygen quencher) is recorded as “no effect”. Besides, the “% response” value in test [2] is reported as 38.5%; in test [3] it was 0%; in the test on WT embryos, 65%.
